This note sets out measurements from PubChem BioAssay AID2060894 (Molecular Pharmacology Branch, DTP, NCI, 2025).

For the experiment, the system named is K12877-001-R-J1-PDC complex spheroid viability. Put plainly: Anticancer human tumor K12877-001-R-J1-PDC patient-derived lung adenocarcinoma cell line growth inhibition [RAS]. The conditions noted are these: for viability, T/C: stronger effect = lower value. In short, it runs like this:
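Multi-cell-type spheroids: tumor cells plus HUVEC endothelial cells and mesenchymal stem cells. RAS-pathway inhibitors were combined with targeted agents, each dosed in half-log steps down from clinical Cmax, or from 10 microM when Cmax was unknown.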

Where “and” joins values, the source holds several entries; their conditions need not be identical. Equal values may be shown once.
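Further: spheroids exposed to agents for one week before readout.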
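Wherever viability, T/C is given: tumour cells co-cultured with HUVEC and mesenchymal stem cells in spheroids.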

As to `C[C@@H](NC(=O)c1ncnc(N)c1Cl)c1ncc(C(=O)Nc2cc(C(F)(F)F)c(Cl)cn2)s1` + C#Cc1c(F)ccc2cc(O)cc(-c3ncc4c(N5CC6CCC(C5)N6)nc(OCC56CCCN5CC(F)C6)nc4c3F)c12, the IC50 (commonly the concentration needed to halve the response being measured) was over 10 µM (curve of first compound, second compound 0.0316 µM); over 10 µM (curve of first compound, second compound 0.1 µM); over 10 µM (curve of first compound, second compound 0.316 µM); over 10 µM (curve of first compound, second compound 1 µM); over 10 µM (curve of first compound, second compound 3.16 µM); over 10 µM (curve of first compound, second compound 10 µM). For the same compound, the viability, T/C (usually the ratio of treated to control) (second compound 0.0316 µM, first compound 0.0316 µM) is 108%; the viability, T/C (second compound 0.0316 µM, first compound 0.1 µM) is 101%; the viability, T/C (second compound 0.0316 µM, first compound 0.316 µM) was 113%; the viability, T/C (second compound 0.0316 µM, first compound 1 µM) was 107%; the viability, T/C (second compound 0.0316 µM, first compound 3.16 µM) is 99%; the viability, T/C (second compound 0.0316 µM, first compound 10 µM) is 102%. Besides, the viability, T/C runs as follows: (second compound 0.1 µM, first compound 0.0316 µM) 94.4%; (second compound 0.1 µM, first compound 0.1 µM) 96.2%; (second compound 0.1 µM, first compound 0.316 µM) 93.5%; (second compound 0.1 µM, first compound 1 µM) 103%; (second compound 0.1 µM, first compound 3.16 µM) 92.5%; (second compound 0.1 µM, first compound 10 µM) 97.9%. Moreover, the viability, T/C is 96.9% (second compound 0.316 µM, first compound 0.0316 µM); 105% (second compound 0.316 µM, first compound 0.1 µM); 97.4% (second compound 0.316 µM, first compound 0.316 µM); 101% (second compound 0.316 µM, first compound 1 µM); 108% (second compound 0.316 µM, first compound 3.16 µM); 98.6% (second compound 0.316 µM, first compound 10 µM). Besides, the viability, T/C (second compound 1 µM, first compound 0.0316 µM) was 87.7%; the viability, T/C (second compound 1 µM, first compound 0.1 µM) is 105%; the viability, T/C (second compound 1 µM, first compound 0.316 µM) is 102%; the viability, T/C (second compound 1 µM, first compound 1 µM) was 108%; the viability, T/C (second compound 1 µM, first compound 3.16 µM) is 106%; the viability, T/C (second compound 1 µM, first compound 10 µM) was 98.9%. Further, the viability, T/C (second compound 3.16 µM, first compound 0.0316 µM) was 107%; the viability, T/C (second compound 3.16 µM, first compound 0.1 µM) was 104%; the viability, T/C (second compound 3.16 µM, first compound 0.316 µM) was 104%; the viability, T/C (second compound 3.16 µM, first compound 1 µM) was 106%; the viability, T/C (second compound 3.16 µM, first compound 3.16 µM) is 111%; the viability, T/C (second compound 3.16 µM, first compound 10 µM) was 98.3%. The viability, T/C reads like this: (second compound 10 µM, first compound 0.0316 µM) 106%; (second compound 10 µM, first compound 0.1 µM) 91.7%; (second compound 10 µM, first compound 0.316 µM) 107%; (second compound 10 µM, first compound 1 µM) 98%; (second compound 10 µM, first compound 3.16 µM) 107%; (second compound 10 µM, first compound 10 µM) 96.7%.
Consider `NC1c2ccccc2OC12CCN(c1cnc3c(N4CCCc5ncccc54)n[nH]c3n1)CC2` (stereo unspecified), for which the viability, T/C (compound 0.0316 µM) is 100% [middle of 4 runs]; the viability, T/C (compound 0.1 µM) was 97.9% [middle of 4 runs]; the viability, T/C (compound 10 µM) is 51.5% [middle of 4 runs]. Also, the IC50 (curve of compound) was > 10 µM and 3.82 µM.
